# US4735793A, “Carboxy, carboalkoxy and carbamile substituted isonitrile radionuclide complexes” (Massachusetts Institute of Technology, priority 1985, dated 1988)
# Experiments:
# [1] = rabbit, in vivo, iv
# Description: (§2) Rabbits were anesthetized with Ketamine and Nembutal™ and positioned beneath a gamma camera to allow continuous collection of data including a chest and abdomen view. 1 mCi of the test agent as specified below was injected via an ear vein and data collected continuously at 60 second intervals for 60 minutes. Curves were generated by drawing regions of interest over selected tissues and normalizing to counts per minute per pixel.
# The time of maximum activity in the liver post injection is "^t max", while "t1/2" is the apparent half life of the clearance curve from ^t max. The latter data is an estimate based on data collected to 60 minutes after administration. This assumes a simple exponential curve with time, although more extensive studies might indicate more components are actually present.
# [2] = Scintigraphic imaging of the heart in rabbits; format: in vivo, rabbit
# Description: (§1) Two rabbits were anesthetized with sodium pentobarbital and injected via an ear vein with 3-8 mCi of ^99m Tc-isonitrile complex. One rabbit was imaged using a gamma camera equipped with a pinhole collimator positioned directly over the chest. Three minute static images were acquired at 5, 10, […], 40, 50 and 60 minutes post injection. A second rabbit was used to investigate the relative whole body distribution of activity for 60 minutes post-injection. Immediately post-injection, 300 thousand count images were acquired in the following sequence of projections: chest, anterior heart, whole body, anterior heart, left lateral whole body, anterior heart, lateral heart, anterior heart.
# FIG. 6(a) is a scintigraphic image of a rabbit injected with a complex of ^99m Tc-carboethoxyisopropylisonitrile at 5 minutes after injection, while FIG. 6(b) is a scintigraphic image of the same rabbit at 15 minutes after injection. FIG. 7(a) is a scintigraphic image of a rabbit injected with a complex of ^99m Tc-2-carboethoxyethylisonitrile at 1, 10, 15 and 20 minutes post injection. FIG. 7 (b) is a scintigraphic image of a rabbit injected with the above complex at 31 minutes post-injection. The heart is at (A), the gall bladder at (B) and the site of injection at (C). The interpretation of these images is known to the person of ordinary skill in this field.
# [3] = rabbit, in vivo
# Description: as §2
# The complexes were prepared, injected and imaged as described above.
# [4] = Scintigraphic images in animal and human tests; format: in vivo; settings: for usefulness for imaging the heart: in vivo
# Description: Scintigrapic Imaging Procedure in Animals
# as §1
# Swine were sedated with intramuscular injections of Ketamine and acepromazine, and anesthetized with sodium pentobarbital. The animals were positioned for anterior image acquisition over the chest under a low energy, high resolution collimator and injected with 10-12 mCi ^99m Tc-isonitrile complex via a leg vein. The liver was covered with a lead shield, and three minute images were acquired at 5, 10, 20, 30, 40, 50 and 60 minutes post-injection.
# After anesthetization with sodium pentobarbital, dogs were injected with 25 mCi of ^99m Tc and positioned for anterior chest image acquisition using a pinhole collimator. Again, three minute images were obtained at 5, 10, 20, 30, 40, 50 and 60 minutes post-injection.
Molecule,t1/2 (apparent half life of the liver clearance curve from tmax) [1],tmax (time of maximum activity in the liver post injection) [1],lung clearance [3],"resolution of the apex of the heart ([2]; by 20 minutes after injection, after liver clearance)",resolution of the myocardium ([2]; five minutes after injection),"visualization of the apex of the heart ([2]; initially, background noise from liver uptake)",usefulness for imaging the heart [4],image quality ([4]; animal and human tests)
"[C-]#[N+]C(C)C [CNC(CH3)2 R, R = --H, isopropylisonitrile, reference compound]",98 min,5 min,,,,,,
"^99m TC-hexakis carbo-t-butoxymethylisonitrile technetium [CNCH2 R, R = --COO^t C4 H9]",25 min,5 min,,,,,,
"^99m Tc-Hexakis-1-carbomethoxyisopropylisonitrile Technetium (I) [CNC(CH3)2 R, R = --COOCH3]",35 min,3 min,rapid lung clearance,excellent resolution of the apex,very good to excellent resolution of the myocardium,initially prevents clear visualization of the apex of the heart,particularly useful for imaging the heart,

# Second part, led by results:
t1/2 (apparent half life of the liver clearance curve from tmax) [1],tmax (time of maximum activity in the liver post injection) [1],lung clearance [3],Molecule,"resolution of the apex of the heart ([2]; by 20 minutes after injection, after liver clearance)",resolution of the myocardium ([2]; five minutes after injection),"visualization of the apex of the heart ([2]; initially, background noise from liver uptake)",usefulness for imaging the heart [4],image quality ([4]; animal and human tests)
88 min,14 min,,"[C-]#[N+]C [CNCH2 R, R = --H, methyl isonitrile, reference compound]",,,,,
270 min,2 min,,"[C-]#[N+]CC [CNCH(R)CH3, R = --H, ethyl isonitrile, reference compound]",,,,,
37 min,1 min,,"Hexakis carbomethoxymethylisonitrile Technetium Cation [CNCH2 R, R = --COOCH3]",,,,,
17 min,2 min,,"^99m Tc-Hexakis-2-carboethoxyethylisonitrile Technetium (I) [CNCH2 CH2 R, R = --COOC2 H5]",,,,particularly useful for imaging the heart,excellent images in both animal and human tests
